From patent US10881709B2, “Immune system modulators and compositions” (Canimguide Therapeutics AB, priority 2015, dated 2021)
Ends that are not written are not given here.

Experiments:
[1] = test system: PBMCs from healthy control person; assay: PBMC activation (CD69/CD71, flow cytometry) in RPMI plus 10% human AB serum; assay type: cell-based; conditions: 40 μg/mL, 24 hours, healthy PBMCs
Experimental: The activity of peptide P28R (SEQ ID NO: 2) and modifications of P28R was studied in a human ex vivo model using PBMCs in short term cultures, 24 or 48 hours. Effects of P28R and modifications of P28R on PBMCs from a healthy control person were studied. Activation was measured as percentage of cells with enhanced marker CD69 using flow cytometry. PBMCs were incubated with the peptides (40 μg/mL) for 24 hours in RPMI plus 10% human AB serum.
As observed in Example 37, P28R (SEQ ID NO: 2) can stimulate PBMCs from healthy controls in short term cultures when RPMI plus 10% normal human AB serum is used as culture medium. Truncations of P28R were also assessed for their ability to activate PBMCs. PBMCs were incubated with the peptides (40 μg/mL) for 24 hours in RPMI plus 10% human AB serum. PBMC activation was measured as percent cells with enhanced expression of either CD69 (FIG. 42A) or CD71 (FIG. 42B) using flow cytometry. Two experiments were performed for each peptide.
Effects of modified peptides on activation of PBMCs from healthy control person were assessed. Activation was determined as percentage of cells with enhanced marker CD69 or CD71 using flow cytometry. PBMCs were incubated with the peptides (40 μg/mL) for 48 hours in RPMI plus 10% human AB serum.

PBMCs [2] = assay: PBMC activation (CD69) in culture medium with cancer sera; assay type: cell-based; conditions: sera from dogs with cancer or human patients with cancer
P3028 (SEQ ID NO: 185) = P3028 (SEQ ID NO: 185) (Homo sapiens, UniProt P02768); assay: Positional scan: P3028 binding to solid phase P28R variants (ELISA)
Experimental: Positional scan data was used to study the influence of substitution of different types of amino acids in each position of P28R (SEQ ID NO: 2) on the binding of P3028 (SEQ ID NO: 185). Each amino acid in the peptide sequence of P28R (SEQ ID NO: 2) was exchanged with all of the naturally occurring amino acids, and immobilized on a solid phase chip. The binding of P3028 to these “mutated” P28 R peptides synthesized on a chip was determined using the ELISA technique. In view of the results, Table 13 includes a column identifying optional substitutions at each position that can maintain binding to P3028.

[3] = biological target: P3028 (PGE73=His-tag-P3028) (Homo sapiens, UniProt P02768); assay: Blocking of P3028 binding by peptide inhibitors in solution (PEPSCAN-based ELISA); conditions: peptide 0.5 mg/mL
Experimental: Three candidate peptide inhibitors of P3028 sequences/structures were identified and their blocking capacity in solution was tested. Potential peptide inhibitors of P3028 were synthesized on a chip. The linear and/or CLIPS peptides were synthesized based on the amino acid sequence of the target protein using standard Fmoc-chemistry and deprotected using trifluoric acid with scavengers. The constrained peptides were synthesized on chemical scaffolds in order to reconstruct conformational epitopes, using Chemically Linked Peptides on Scaffolds (CLIPS) technology (Timmerman et al. (2007)). For example, the single looped peptides were synthesized containing a dicysteine, which was cyclized by treating with alpha, alpha′-dibromoxylene and the size of the loop is varied by introducing cysteine residues at variable spacing. […] After one hour, the color development was measured. The color development was quantified with a charge coupled device (CCD)—camera and an image processing system.
The raw data (Raw Data: Optical density, Arbitrary OD units) are optical values obtained by a CCD-camera. The values mostly range from 0 to 3000, a log scale similar to 1 to 3 of a standard 96-well plate ELISA-reader. […] Sometimes a well contains an air-bubble resulting in a false-positive value, the cards are manually inspected and any values caused by an air-bubble are scored as 0. […]

PBMCs [4] = assay: IL-2 induced proliferation of PBMCs, BrdU incorporation; assay type: cell-based, human; conditions: PBMCs with low initial proliferation / low response to IL-2, 7 days
Experimental: PBMCs were cultured for 7 days with IL-2 and the proliferative rate was determined as incorporation of BrdU. Each bar represents mean value of triplets. Similar to the studies on the efficacy of antibodies (see FIG. 22) directed against P3028 to reverse cancer related immunosuppression determined as a poor proliferative response of PBMCs from cancer patients to IL-2, the efficacy of the low molecular weight inhibitor P28R on reversal of suppressed IL-2 induced proliferation was investigated. For each quantity of added P28R, IL-2 stimulated cells 240 are shown in the left, and unstimulated 242 are shown on the right. […]
The effect of P28R (SEQ ID NO: 2) on IL-2 induced proliferation was measured in a BrdU incorporation assay. […]
The response of high responders and low responders to various doses of P28R was compared. […] IL-2-induced proliferation was measured as BrdU incorporation, as in the above example, and the results are shown for high responders in FIG. 36A, and low responders in FIG. 36B.
PBMCs from low responder cancer patients of Example 30 were cultured as in Example 30, except that some samples were cultured with various concentrations P28R (aka “SCF28-R”), and others were cultured with various concentrations of P27 (aka “SCF27”). […] BrdU incorporation was measured as in Example 30. […]

PBMCs [5] = assay: Mitochondrial metabolism of PBMCs, conversion of MTS; assay type: cell-based, human; conditions: PBMCs from cancer patients, 5-40 μg/ml
Experimental: PBMCs from eight healthy control samples and nine cancer patients with various diagnoses (including renal cell cancer, malignant melanoma, rectal cancer, small cell lung cancer, non-small cell lung cancer (adenocarcinoma), squamous cell carcinoma, bladder cancer, osteosarcoma, pancreatic cancer, or bronchial cancer) were cultured in a modified version of the ex vivo model of Example 2 for seven days in the presence of various quantities of P28R (SEQ ID NO: 2), and control samples were untreated with P28R. […] Similar results were obtained when the PBMCs were cultured for only three days.
PBMCs from cancer patients with various diagnoses were cultured in a modified version of the ex vivo model of Example 2 with various concentrations of P28R or P27 (N=9 for P28R: N=8 for P27). The concentrations were either untreated control samples, 5 μg/mL (“SCF28-R5” and “SCF275”), 10 μg/ml (“SCF28-R10” and “SCF2710”), 20 μg/ml (“SCF28-R20” and “SCF2720”), or 40 μg/ml (“SCF28-R40” and “SCF2740”).

PBMCs [6] = assay: Direct binding to PBMCs (immunocytochemistry, rosetting of coated beads); set-up: species or system human

In the case of FFVKLS [P28 core], the “PBMC activation, enhanced CD69 or CD71” value [1] is reported as “did not activate”, the “PBMC activation, enhanced CD69” value (PBMCs [2]) is reported as “activated PBMCs” and the “binding to P3028 based on positional scans” value (P3028 (SEQ ID NO: 185)) is reported as “as efficiently as the full length peptide P28R”.
With KKLDTFFKKLSLFTER [P27] the “blocking of the binding of P3028 in solution” value [3] was “does not”, the “effect on IL-2 induced proliferation (BrdU)” value (PBMCs [4]) was “enhanced the proliferative rate” and the “effect on MTS conversion” value (PBMCs [5]) was “no effect”.
In the case of “biotinylated P28R: P28R labelled with biotin (KKLDTFFVKLSLFTER; also: biotin label, position not given here)”, the “direct binding to PBMCs” value (PBMCs [6]) is reported as “bind directly to PBMCs”.
